In ChEMBL document CHEMBL3124747, “Formosusin A, a novel specific inhibitor of mammalian DNA polymerase β from the fungus Paecilomyces formosus” (Bioorg Med Chem, 2014):

What was measured:
DNA polymerase beta = DNA polymerase beta (Rattus norvegicus, UniProt P06766); test: Inhibition of recombinant rat DNA polymerase beta expressed in Escherichia coli JMpbeta5 assessed as inhibition of incorporation of dTTP into poly(dA)/oligo(dT)18 after 60 mins
Polynucleotide kinase = Polynucleotide kinase (Enterobacteria phage T4, UniProt P06855); test: Inhibition of T4 bacteriophage polynucleotide kinase assessed as inhibition of incorporation of dTTP into poly(dA)/oligo(dT)18 after 60 mins; parameters: species or system Tequatrovirus T4
[1] = molecular target: DNA-directed DNA/RNA polymerase mu (Homo sapiens, UniProt Q9NP87); test: Inhibition of human His-tagged recombinant DNA polymerase mu expressed in Escherichia coli BL21 assessed as inhibition of incorporation of dTTP into poly(dA)/oligo(dT)18 after 60 mins
[2] = molecular target: T1, DNA polymerase alpha catalytic subunit (Drosophila melanogaster, UniProt P26019); test: Inhibition of fruit fly DNA polymerase alpha assessed as inhibition of incorporation of dTTP into poly(dA)/oligo(dT)18 after 60 mins
T1 sequence (P26019 whole entry): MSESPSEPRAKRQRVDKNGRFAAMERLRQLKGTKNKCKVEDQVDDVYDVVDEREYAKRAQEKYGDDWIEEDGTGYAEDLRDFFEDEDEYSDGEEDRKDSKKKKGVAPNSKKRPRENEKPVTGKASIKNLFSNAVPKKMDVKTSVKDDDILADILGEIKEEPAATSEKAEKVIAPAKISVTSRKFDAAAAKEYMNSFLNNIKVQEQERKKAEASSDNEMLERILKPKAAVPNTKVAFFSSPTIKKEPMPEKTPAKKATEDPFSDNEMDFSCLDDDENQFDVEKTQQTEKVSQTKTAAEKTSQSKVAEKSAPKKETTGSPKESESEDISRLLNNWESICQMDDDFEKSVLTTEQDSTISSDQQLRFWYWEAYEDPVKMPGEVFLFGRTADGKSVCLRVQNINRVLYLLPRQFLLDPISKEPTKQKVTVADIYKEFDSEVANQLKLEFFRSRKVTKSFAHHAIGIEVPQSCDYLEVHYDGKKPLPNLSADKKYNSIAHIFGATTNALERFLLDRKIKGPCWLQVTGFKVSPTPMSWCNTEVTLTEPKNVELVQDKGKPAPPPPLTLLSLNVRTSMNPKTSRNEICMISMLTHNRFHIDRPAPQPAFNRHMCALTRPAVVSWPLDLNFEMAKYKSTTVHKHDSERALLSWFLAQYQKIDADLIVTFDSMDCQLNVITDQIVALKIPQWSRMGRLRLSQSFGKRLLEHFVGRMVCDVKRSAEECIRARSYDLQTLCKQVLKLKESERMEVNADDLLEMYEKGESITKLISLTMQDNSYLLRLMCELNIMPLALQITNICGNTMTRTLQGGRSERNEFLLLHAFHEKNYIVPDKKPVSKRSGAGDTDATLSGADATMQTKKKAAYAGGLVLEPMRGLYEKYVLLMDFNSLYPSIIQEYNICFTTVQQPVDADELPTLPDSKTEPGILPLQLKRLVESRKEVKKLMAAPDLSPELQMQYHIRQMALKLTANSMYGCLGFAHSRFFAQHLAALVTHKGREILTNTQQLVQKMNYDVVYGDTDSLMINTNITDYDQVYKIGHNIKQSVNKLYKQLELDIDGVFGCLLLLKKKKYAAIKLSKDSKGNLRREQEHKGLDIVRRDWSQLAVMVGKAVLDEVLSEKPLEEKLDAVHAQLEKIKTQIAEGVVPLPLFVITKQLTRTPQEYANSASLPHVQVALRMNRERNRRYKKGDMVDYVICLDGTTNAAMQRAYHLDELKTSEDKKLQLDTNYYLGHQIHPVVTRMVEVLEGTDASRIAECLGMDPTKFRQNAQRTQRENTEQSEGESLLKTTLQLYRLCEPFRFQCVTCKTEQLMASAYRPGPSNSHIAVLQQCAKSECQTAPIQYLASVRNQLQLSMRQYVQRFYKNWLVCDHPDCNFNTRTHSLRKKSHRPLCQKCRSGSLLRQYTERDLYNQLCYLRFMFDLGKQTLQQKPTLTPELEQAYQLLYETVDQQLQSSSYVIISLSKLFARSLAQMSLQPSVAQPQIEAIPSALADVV

[3] = molecular target: T2, DNA-directed DNA polymerase (Enterobacteria phage T4, UniProt P04415); test: Inhibition of T4 bacteriophage DNA polymerase assessed as inhibition of incorporation of dTTP into poly(dA)/oligo(dT)18 after 60 mins; parameters: species or system Tequatrovirus T4
T2 sequence (P04415 whole entry): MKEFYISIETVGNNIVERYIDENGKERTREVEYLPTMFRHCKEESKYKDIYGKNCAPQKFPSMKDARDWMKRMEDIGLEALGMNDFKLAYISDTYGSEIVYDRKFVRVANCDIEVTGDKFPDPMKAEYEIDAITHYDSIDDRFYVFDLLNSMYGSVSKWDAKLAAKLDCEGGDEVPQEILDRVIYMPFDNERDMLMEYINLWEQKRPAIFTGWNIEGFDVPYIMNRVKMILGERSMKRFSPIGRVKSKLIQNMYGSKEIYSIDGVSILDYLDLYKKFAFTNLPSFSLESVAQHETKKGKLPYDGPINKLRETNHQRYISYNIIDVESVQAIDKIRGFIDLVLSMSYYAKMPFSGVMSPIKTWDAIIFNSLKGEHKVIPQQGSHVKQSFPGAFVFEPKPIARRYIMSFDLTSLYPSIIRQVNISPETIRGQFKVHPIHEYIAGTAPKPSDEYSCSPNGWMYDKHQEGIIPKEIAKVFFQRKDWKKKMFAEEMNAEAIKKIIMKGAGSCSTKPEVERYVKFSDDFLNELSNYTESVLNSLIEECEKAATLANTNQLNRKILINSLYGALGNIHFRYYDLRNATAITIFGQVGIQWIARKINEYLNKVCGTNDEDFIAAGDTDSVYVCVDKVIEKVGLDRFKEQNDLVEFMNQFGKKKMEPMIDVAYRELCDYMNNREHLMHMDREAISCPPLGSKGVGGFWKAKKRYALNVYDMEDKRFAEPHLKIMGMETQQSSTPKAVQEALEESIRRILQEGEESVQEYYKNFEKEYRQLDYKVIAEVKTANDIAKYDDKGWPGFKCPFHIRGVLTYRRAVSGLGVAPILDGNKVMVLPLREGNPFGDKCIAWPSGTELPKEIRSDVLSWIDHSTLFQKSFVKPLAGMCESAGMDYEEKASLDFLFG

[4] = Inhibition of C-terminal His-6-tagged L. cv.Nipponbare rice recombinant DNA polymerase lambda expressed in Escherichia coli assessed as inhibition of incorporation of dTTP into poly(dA)/oligo(dT)18 after 60 mins; parameters: species or system Oryza sativa
[5] = Inhibition of Escherichia coli polymerase DNA polymerase 1 klenow fragment assessed as inhibition of incorporation of dTTP into poly(dA)/oligo(dT)18 after 60 mins

Sequence of DNA-directed DNA/RNA polymerase mu (Q9NP87 whole entry): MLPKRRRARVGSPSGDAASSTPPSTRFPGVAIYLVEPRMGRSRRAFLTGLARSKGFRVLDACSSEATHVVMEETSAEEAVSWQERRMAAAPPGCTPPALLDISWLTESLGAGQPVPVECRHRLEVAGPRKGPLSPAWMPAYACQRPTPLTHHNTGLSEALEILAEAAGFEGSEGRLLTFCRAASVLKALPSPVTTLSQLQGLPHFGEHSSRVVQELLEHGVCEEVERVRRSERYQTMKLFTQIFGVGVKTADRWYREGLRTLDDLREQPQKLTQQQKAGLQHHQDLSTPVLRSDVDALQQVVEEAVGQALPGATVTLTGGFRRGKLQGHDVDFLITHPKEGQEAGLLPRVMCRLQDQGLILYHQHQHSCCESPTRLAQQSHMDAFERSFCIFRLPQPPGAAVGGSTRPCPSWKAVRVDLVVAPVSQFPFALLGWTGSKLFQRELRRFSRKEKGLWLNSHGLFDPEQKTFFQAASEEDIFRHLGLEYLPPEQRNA
Sequence of Polynucleotide kinase (P06855 whole entry): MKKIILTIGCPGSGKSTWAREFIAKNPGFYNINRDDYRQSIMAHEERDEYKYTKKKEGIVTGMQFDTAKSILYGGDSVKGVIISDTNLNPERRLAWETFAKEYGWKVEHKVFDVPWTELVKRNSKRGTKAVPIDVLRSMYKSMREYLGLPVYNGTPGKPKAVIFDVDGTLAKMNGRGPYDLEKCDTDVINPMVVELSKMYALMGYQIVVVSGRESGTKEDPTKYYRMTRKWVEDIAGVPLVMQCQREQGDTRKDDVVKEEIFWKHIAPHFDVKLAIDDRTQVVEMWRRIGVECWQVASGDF

SMILES | IC50 (DNA polymerase beta) | IC50 (Polynucleotide kinase) | IC50 [1] | IC50 [2] | IC50 [3] | IC50 [4] | IC50 [5]
CCCC[C@@H](O)/C=C(C)/C=C/C=C\C(=O)N1CCCC1=O | 35.6 µM | > 200 µM | > 200 µM | > 200 µM | > 200 µM | > 200 µM | > 200 µM
CCCC[C@@H](O)/C=C(C)/C=C/C=C/C(=O)N1CCCC1=O [PECILOCIN] | > 200 µM | > 200 µM | > 200 µM | > 200 µM | > 200 µM | > 200 µM | > 200 µM
CC(/C=C/CCC(=O)N1CCCC1=O)=C\C1CCCCO1 (stereo not drawn) | > 200 µM | > 200 µM | > 200 µM | > 200 µM | > 200 µM | > 200 µM | > 200 µM
CCCCC(=O)/C=C(C)/C=C/CCC(=O)N1CCCC1=O | > 200 µM | > 200 µM | > 200 µM | > 200 µM | > 200 µM | > 200 µM | > 200 µM
